Assay results: patent publication US20140228407A1, “TETRA-PYRIDINE COMPOUNDS AND COMPOSITION FOR PROTECTING CELLS, TISSUES AND ORGANS AGAINST ISCHEMIA-REPERFUSION INJURY” (YISSUM RESEARCH DEVELOPMENT COMPANY OF THE HEBREW …, priority 2011, published 2014)

Tests used:
PC12 cells = assay: PC12 ischemic model (oxygen and glucose deprivation), cell death by LDH measurement; type: cell-based; conditions: for protection percentile: protection from cell death, FIG. 6B: identical for both compounds
Description: PC12 cells were grown in 25 cm^2 flasks in Dulbecco's modified Eagles Medium (DMEM), supplemented with 7% fetal bovine serum (FBS), 7% horse serum, […] penicillin and 100 μg/ml streptomycin. Cells were grown in humidified incubator 5% CO2, 95% air at 37° C. The medium was replaced every 2 days, and upon 70% confluence, the cells were counted and seeded for the ischemia experiments.
Approximately 1×10^6 PC12 cells/well were cultured and exposed to ischemia (oxygen and glucose deprivation=OGD) for 4.5 hr. Prior to the exposure, the growth medium was replaced with glucose-free DMEM (1 ml/well). Ischemia was performed in a closed chamber by replacement of air with 95% nitrogen/5% CO2.
Ischemic stress injury was characterized by lactate dehydrogenase (LDH) released from cells. After 4.5 hr of ischemia, a 50 μl sample of supernatant was taken from each well for LDH measurement. At the end of the ischemic insult (after 4.5 hr), glucose (at final concentration of 4.5 g/L by adding 10 μl from stock solution of 450 mg/ml per well (1 ml)) was added to the plates which underwent ischemia. The plates were then transferred to a humidified incubator and exposed to 95% air/5% CO2 at 37° C. for additional 18 hr of reoxygenation. DMEM supernatant samples (25 μl/well) were collected from each well for LDH measurements. The samples were centrifuged at 3500 rpm for 5 min, and 5 μl aliquots of supernatant was taken for LDH measurement.
For every experiment, a duplicate plate was prepared as a control study under normoxia. Cells were kept in a humidified incubator (5% CO2 and 95% air at 37° C.) in cell culture complete medium at a volume of 1 ml for 18 hr, and the same compounds were added with the same concentrations. Supernatant was collected for LDH measurement as indicated in the LDH activity measurement section below. Afterwards (at the end of the reoxygenation phase), the plates were frozen (at −70° C. for 30 min) and thawed once. 25 μl/well sample was collected and the samples were centrifuged at 3500 rpm for 5 min and then taken for LDH measurement (total).
LDH activity was determined using LDH-L kit (Pointe Scientific Inc., Michigan, USA) in the PC12 cell medium. Medium samples (5 μl) were collected at the end of the ischemic insult (after 4.5 hr) and after the reoxygenation period. In parallel, samples from the plates exposed to normoxia were collected. LDH enzymatic activity was measured in a spectrophotometer at a wavelength of 340 nm at 37° C. Data analysis was performed as follows: [OD (cycle 3)−OD (cycle 1)experiment]−[OD(3)−OD(1) control])/[OD(3)−OD(1) total]×100, and presented as percentage of total cell death.
One day before the experiment, 12-well plates were coated with 200 μg/ml type I rat tail collagen (BD Biosciences, Bedford, Mass.) and were further sterilized under UV. 1×10^6 PC12 undifferentiated cells/well were seeded on the plates and allowed to adhere overnight under regular conditions (DMEM medium high glucose 4.5 mg/ml, 5% CO2 and 95% air at 37° C.). Each experiment included 4 plates, two for normoxia and two for ischemia which underwent the same following treatment for all 4 plates.
A half hour before the onset of the ischemic insult, the antioxidant Tempol (4-hydroxy-2,2,6,6-tetramethylpiperidine-1-oxyl) (Sigma, St. Louis, Mo.) at a concentration of 0.5 mM (10 μl/well taken from a 8.6 mg/ml stock solution) or TPEN at a concentration of 3 μM and 10 μM were added to the plates. Before the experiments, the medium was replaced with DMEM glucose free medium at 1 ml volume/well. TPEN or 10 μl Tempol were again added to the appropriate wells and was maintained throughout all experiments.
Thereafter, the plates were introduced into a device inducing ischemia atmosphere with 95% nitrogen and 5% CO2 for 4.5 hr. Oxygen level was monitored online by a digital oxygen monitor showing up to 1%. At the end of OGD, 25 μl from each well was collected into 0.5 ml tubes for the LDH assay. […]

CD rat = assay: Toxicity evaluation in rat after myocardial ischemia (Phase A: mortality, clinical observations, body weights); type: in vivo; conditions: dose levels up to 2 mg/kg following myocardial ischemia
Description: This study was conducted to evaluate the effects of the Compound #6 on cardiac function, infarct size, and Troponin I levels in a model of ischemia/reperfusion in the CD® (CR1CD® (SD)) rat. Phase A was conducted for toxicity evaluation purposes. In Phase B (the efficacy phase), two treatment groups of eight male rats were administered Compound #6 at dose levels of 0.2 and 2 mg/kg via intravenous infusion following myocardial infarction. […]
The animals were placed on mechanical ventilation and not intubated. […] In Phase A, the animals were recovered from anesthesia and evaluated for 4 days. […]
In Phase A, body weights for all animals were measured and recorded at receipt, prior to randomization, just prior to surgery, and daily for 3 days during the study. In Phase B, body weights for all animals were measured and recorded at receipt, prior to each randomization as applicable, and just prior to surgery, except that a body weight was not recorded prior to randomization for the animals received in the second shipment. In both phases, the body weights recorded at receipt and prior to randomization are not reported but are maintained in the study file.

`Cc1ccc(CN(CCN(Cc2ccc(C)cn2)Cc2ccc(C)cn2)Cc2ccc(C)cn2)nc1` [Compound #6] was tested, and the “effectiveness relative to TPEN on PC12 cell death, FIG. 5” value (PC12 cells; 1 μM vs 1 μM TPEN) was 2 fold, the “protection of PC12 cells against ischemia insult-induced cell death vs TPEN at same concentration, FIG. 4” value (PC12 cells; 1 μM vs 1 μM TPEN) was “significantly more potent then TPEN” and the “protection of PC12 cells against ischemia insult-induced cell death vs 3 μM TPEN, FIG. 4” value (PC12 cells; 1 μM vs 3 μM TPEN) was “more effective than 3 μM TPEN”. For the same compound, the “effectiveness relative to the un-protected control group of cells, FIG. 5” value (PC12 cells; 3 μM) was 4 fold, the “effectiveness relative to TPEN on PC12 cell death, FIG. 5” value (PC12 cells; 3 μM vs TPEN at the same concentration) was 3 fold and the “protective effect on PC12 cell death, Compound #6 vs. Compound #4, FIG. 3” value (PC12 cells; at similar concentrations (300 nM, 1 μM, 3 μM)) was “more effective than Compound #4”. The “protection percentile: protection from cell death, FIG. 6B” value (PC12 cells; first of two selected concentrations (not given)) was 29%, the “protection percentile: protection from cell death, FIG. 6B” value (PC12 cells; second of two selected concentrations (not given)) was 63% and the “dose response function, attenuating cell death following ischemia-reperfusion, vs TPEN, FIG. 6A” value (PC12 cells; selected concentrations) was “superior to the latter”. The “toxicity in the rat (overall conclusion)” value (CD rat) was “not associated with any toxicity”.
